Data on 75 compounds can be found in US20250346584A1, “NOVEL KAPPA OPIOID LIGANDS” (The Scripps Research Institute, priority 2012, published 2025).

The target of this assay is kappa opioid receptor (OPRK1) (Homo sapiens (Human), UniProt P41145). The assay can be described thus: OPRK1 antagonist assay (b-arrestin-2-TEV / b-lactamase reporter cell line, EC80 U-50488 challenge). Format: cell-based. The conditions noted are these: read-out: IC50 nM (% inhib if other than 50%); antagonist mode vs EC80 U-50488; NA = not active at concentrations up to 10 μM.
Chain of kappa opioid receptor (OPRK1) (P41145 whole entry): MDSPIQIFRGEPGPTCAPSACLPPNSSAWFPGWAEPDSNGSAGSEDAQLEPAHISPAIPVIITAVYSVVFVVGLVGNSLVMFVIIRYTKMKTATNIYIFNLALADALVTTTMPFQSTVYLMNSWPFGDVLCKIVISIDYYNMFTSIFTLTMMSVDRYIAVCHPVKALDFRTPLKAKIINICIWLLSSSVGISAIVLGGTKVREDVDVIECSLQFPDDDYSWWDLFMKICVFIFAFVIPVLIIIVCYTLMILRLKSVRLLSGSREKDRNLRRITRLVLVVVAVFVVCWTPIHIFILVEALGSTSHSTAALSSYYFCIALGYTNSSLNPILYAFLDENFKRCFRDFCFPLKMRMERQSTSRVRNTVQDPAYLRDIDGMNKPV

By IC50 is commonly meant the concentration that gives 50% inhibition. On to `Cc1ccc2nc(N3CCC(NC4CCCCC4C)CC3)c(-c3nc(C)no3)cc2c1` (stereo not drawn) [compound 348], for which the IC50 was found to be 1.3 nM. As for `Cc1ccc2nc(N3CCC(NC(C)C4CCCCC4)CC3)c(-c3nc(C)no3)cc2c1` (stereo not drawn) [compound 349], the figure is 21 nM; as for `Cc1ccc2nc(N3CCC(NC4CCC(C)CC4)CC3)c(-c3nc(C)no3)cc2c1` (stereo not drawn) [compound 350], 0.97 nM. Regarding `CCCC(C)NC1CCN(c2nc3ccc(C)cc3cc2-c2nc(C)no2)CC1` (stereo not drawn) [compound 351], the IC50 was found to be 3 nM. With `Cc1ccc2nc(N3CCC(NCC4CCCCC4O)CC3)c(-c3nc(C)no3)cc2c1` (stereo not drawn) [compound 352], the IC50 is 3.1 nM. In the case of `CCOC(=O)c1nc2cc(C)ccc2nc1N1CCC(NC2CCCCC2)C(OC)C1` (stereo not drawn) [compound 353], the IC50 amounted to 23 nM. As for `Cc1ccc2nc(N3CCC(NCC(C)C)CC3)c(-c3nc(C4CC4)no3)cc2c1` [compound 354], the figure is 4.2 nM.

For the compound `CO[C@H]1CN(c2ncc(C)cc2C(=O)OC(C)C)CC[C@H]1NC1CCCCC1` [compound 356], the IC50 stood at 12.5 nM. For `Cc1cnc(N2CCC(C)(NC3CCCCC3)CC2)c(-c2nc(C)no2)c1` [compound 357] the value was 22.3 nM; for `Cc1ccc2nc(N3CCC(NCC(C)O)CC3)c(-c3nc(C)no3)cc2c1` (stereo not drawn) [compound 360], 8 nM.

Take `CO[C@@H]1CN(c2ncc(C)cc2C(=O)OC(C)C)CC[C@@H]1NC1CCCCC1` [compound 361]: the IC50 came out at 1440 nM. For `CCOC(=O)c1nc2cc(C)ccc2nc1N1CCC(NC2CCCCC2)C(CO)C1` (stereo not drawn) [compound 373] the value was 63 nM. As for `COC1CN(c2nc3ccccc3cc2-c2nc(C)no2)CCC1NCC(C)C` (stereo not drawn) [compound 374], the figure is 45 nM. In the case of `COC1CN(c2nc3ccc(C)cc3cc2-c2nc(C)no2)CCC1NCC(C)C` (stereo not drawn) [compound 375], the IC50 amounted to 12 nM. As to `COC1CN(c2nc3ccc(C)cc3cc2-c2nc(C3CC3)no2)CCC1NCC(C)C` (stereo not drawn) [compound 376], the IC50 stood at 14 nM. With `COC1CN(c2nc3ccc(C)cc3cc2-c2noc(C)n2)CCC1NCC(C)C` (stereo not drawn) [compound 377], the IC50 stood at 69 nM. As for `COC1CN(c2nc(C)c(C)cc2-c2nc(C)no2)CCC1NCC(C)C` (stereo not drawn) [compound 378], the figure is 256 nM; as for `CO[C@@H]1CN(c2nc3ccc(C)cc3cc2-c2noc(C)n2)CC[C@@H]1NC1CCCCC1` [compound 382], 83 nM.

As to `COC1CN(c2ncc(C)cc2-c2nccc(C)n2)CCC1NC1CCCCC1` (stereo not drawn) [compound 384], the IC50 worked out at 16700 nM. For `COC1CN(c2nc(C)c(C)nc2-c2nc(C)no2)CCC1NC1CCCCC1` (stereo not drawn) [compound 390] the value was 1920 nM; for `COC1CN(c2ncc(C)cc2-c2cn(C)nn2)CCC1NC1CCCCC1` (stereo not drawn) [compound 392], 2960 nM. With `Cc1ccc2nc(N3CCC(NCC(C)(C)O)CC3)c(-c3nc(C)no3)cc2c1` [compound 402], the IC50 was 16 nM. Regarding `CO[C@@H]1CN(c2nnc(C)cc2C(=O)OC(C)C)CC[C@@H]1NC1CCCCC1` [compound 404], the IC50 turned out to be 63 nM. Regarding `Cc1cnc(-c2cc(C)cnc2N2CCC(NC3CCCCC3)CC2)nc1` [compound 406], the IC50 was 7680 nM. For `COC1CN(c2nnc(C)cc2C(=O)OC(C)C)CCC1NCC(C)C` (stereo not drawn) [compound 408] the value was 57 nM; for `CO[C@H]1CN(c2nnc(C)cc2C(=O)OC(C)C)CC[C@H]1NC1CCCCC1` [compound 411], 10 nM; for `Cc1ccc2nc(N3CCC(NC[C@@H](C)O)CC3)c(-c3nc(C)no3)cc2c1` [compound 421], 48 nM. On to `Cc1ccc2nc(N3CCC(NC[C@H](C)O)CC3)c(-c3nc(C)no3)cc2c1` [compound 422], for which the IC50 came to 106 nM. In the case of `COC1CN(c2nc(CO)ccc2-c2nc(C)no2)CCC1NC1CCCCC1` (stereo not drawn) [compound 425], the concentration for half-maximal inhibition (IC50) was 60 nM. As for `Cc1ccc2nc(N3CCC(NCC4CC4)CC3)c(-c3noc(C)n3)cc2c1` [compound 434], the figure is 43 nM; as for `Cc1ccc2nc(N3CCC(NC4CCC(F)(F)CC4)CC3)c(-c3nc(C)no3)cc2c1` [compound 435], 6 nM. As for `Cc1ccc2nc(N3CCC(NC4CCC(F)(F)CC4)CC3)c(-c3noc(C)n3)cc2c1` [compound 436], the figure is 26 nM.

On to `Cc1ccc2nc(N3CCC(NC4CCCC[C@@H]4O)CC3)c(-c3noc(C)n3)cc2c1` (stereo partly drawn) [compound 437], for which the IC50 was determined as 17 nM.

For `Cc1ccc2nc(N3CCC(NC4CCC[C@@H]4O)CC3)c(-c3noc(C)n3)cc2c1` (stereo partly drawn) [compound 440], the IC50 worked out at 70 nM. As for `Cc1ccc2nc(N3CCC(NC4CCCCC4O)CC3)c(-c3noc(C)n3)cc2c1` (stereo not drawn) [compound 450], the IC50 came out at 11 nM.

For `CCCC(C)NC1CCN(c2nc3ccc(C)cc3cc2-c2noc(C)n2)CC1` (stereo not drawn) [compound 453], the IC50 was 85 nM.

In the case of `Cc1ccc2nc(N3CCC(NC4CCCCC4)C3)c(-c3nc(C)no3)cc2c1` (stereo not drawn) [compound 461], the IC50 came to 52 nM. As for `COC1CN(c2nc3ccccc3cc2-c2cnc(C)cn2)CCC1NC1CCCCC1` (stereo not drawn) [compound 465], the figure is 18 nM; as for `Cc1cnc(-c2cc3ccccc3nc2N2CCC(NC3CCCCC3)CC2)cn1` [compound 466], 24 nM. As for `Cc1nc(-c2cc3cc(F)ccc3nc2N2CCC(NC3CCCCC3)CC2)no1` [compound 467], the figure is 431 nM; as for `Cc1nc(-c2cc3cc(F)ccc3nc2N2CCC(NC3CCCC3)CC2)no1` [compound 468], 175 nM; as for `Cc1nc(-c2cc3cc(F)ccc3nc2N2CCC(NC3CCOCC3)CC2)no1` [compound 469], 440 nM.

As to `CO[C@H]1CN(c2nc3ccccc3cc2-c2cnc(C)cn2)CC[C@H]1NC1CCCCC1` [compound 470], the IC50 came out at 40 nM. `CO[C@@H]1CN(c2nc3ccccc3cc2-c2cnc(C)cn2)CC[C@@H]1NC1CCCCC1` [compound 471]: the IC50 worked out at 170 nM. As for `CO[C@H]1CN(c2ncc(C)cc2-c2cnc(C)cn2)CC[C@H]1NC1CCCCC1` [compound 472], the figure is 105 nM; as for `Cc1cnc(N2CCC(NC3CCOCC3)CC2)c(-c2cnc(C)cn2)c1` [compound 473], 3210 nM. As for `Cc1nc(-c2cc3cc(F)ccc3nc2N2CCC(N[C@H]3CCC[C@@H]3O)CC2)no1` [compound 474], the figure is 1900 nM; as for `Cc1nc(-c2cc3cc(F)ccc3nc2N2CCC(N[C@@H]3CCCC[C@H]3O)CC2)no1` [compound 475], 101 nM. As for `Cc1noc(-c2cc3cc(F)ccc3nc2N2CCC(NC3CCOCC3)CC2)n1` [compound 476], the IC50 was 430 nM. For `Cc1noc(-c2cc3c(F)cccc3nc2N2CCC(NC3CCOCC3)CC2)n1` [compound 477], the IC50 was 42 nM. In the case of `CC(=O)c1cc2cc(C)ccc2nc1N1CCC(NC2CCOCC2)CC1` [compound 478], the IC50 is 900 nM. For `CC(=O)c1cc2cc(C)ccc2nc1N1CCC(NC2CCCCC2)CC1` [compound 479] the value was 211 nM. As for `Cc1nc(-c2cc3ccc(F)cc3nc2N2CCC(NC3CCCCC3)CC2)no1` [compound 480], the figure is 8 nM; as for `Cc1nc(-c2cc3ccc(F)cc3nc2N2CCC(NC3CCCC3)CC2)no1` [compound 481], 10 nM; as for `Cc1nc(-c2cc3ccc(F)cc3nc2N2CCC(NC3CCOCC3)CC2)no1` [compound 482], 75 nM. As for `CO[C@H]1CN(c2nc3ccc(C)cc3cc2C(C)=O)CC[C@H]1NC1CCCCC1` [compound 483], the figure is 315 nM; as for `CO[C@@H]1CN(c2nc3ccc(C)cc3cc2C(C)=O)CC[C@@H]1NC1CCCCC1` [compound 484], 347 nM. Regarding `Cc1nc(-c2cc3ccc(F)cc3nc2N2CCC(N[C@H]3CCCC[C@@H]3O)CC2)no1` [compound 485], the IC50 is 673 nM. `Cc1nc(-c2cc3ccc(F)cc3nc2N2CCC(N[C@H]3CCCOC3)CC2)no1` [compound 486]: the IC50 came to 1070 nM. For `CO[C@H]1CN(c2nc3c(C)c(F)ccc3cc2-c2nc(C)no2)CC[C@H]1NC1CCCCC1` [compound 487] the value was 15 nM; for `Cc1ccc2nc(N3CCC(NC4CCCCC4)CC3)c(-c3ccc(C)o3)cc2c1` [compound 488], 19 nM; for `Cc1noc(-c2cc3ccc(F)c(C)c3nc2N2CCC(NC3CCCCC3)CC2)n1` [compound 491], 33 nM. In the case of `CO[C@@H]1CN(c2nc3c(C)c(F)ccc3cc2-c2nc(C)no2)CC[C@@H]1NC1CCCCC1` [compound 492], the IC50 was determined as 74 nM. `Cc1noc(-c2cc3ccc(F)c(C)c3nc2N2CCC(NC3CCOCC3)CC2)n1` [compound 493]: the IC50 was 132 nM. Take `Cc1noc(-c2cc3ccc(F)c(C)c3nc2N2CCC(NCC(C)C)CC2)n1` [compound 494]: the IC50 is 64 nM.

With `Cc1nc(-c2cc3cc(C)c(F)cc3nc2N2CCC(NC3CCCCC3)CC2)no1` [compound 495], the IC50 was found to be 13 nM.

Regarding `CO[C@H]1CN(c2nc3cc(F)c(C)cc3cc2-c2nc(C)no2)CC[C@H]1NC1CCCCC1` [compound 496], the IC50 is 54 nM.

For `CO[C@H]1CN(c2nc3ccc(C)cc3cc2-c2ccc(C)o2)CC[C@H]1NC1CCCCC1` [compound 497], the IC50 was 48 nM. As for `Cc1noc(-c2cc3cc(C)c(F)cc3nc2N2CCC(NCC(C)C)CC2)n1` [compound 498], the figure is 33 nM; as for `Cc1cnc(N2CCC(NC3CCCCC3)CC2)c(-c2ccc(C)o2)c1` [compound 499], 116 nM. For the compound `CO[C@H]1CN(c2nc3ccc(C)cc3cc2-c2nc(C)no2)CC[C@H]1NC1CCOCC1` [compound 500], the IC50 was determined as 423 nM. For `Cc1ccc2nc(N3CCC(NC4CCOCC4)CC3)c(-c3ccc(C)o3)cc2c1` [compound 501] the value was 331 nM; for `Cc1nc(-c2cc3ccc(F)c(C)c3nc2N2CCC(NC3CCCCC3)CC2)no1` [compound 503], 74 nM. As for `Cc1nc(-c2cc3ccc(F)c(C)c3nc2N2CCC(NC3CCCC3)CC2)no1` [compound 504], the IC50 is 45 nM.

For `Cc1nc(-c2cc3ccc(F)c(C)c3nc2N2CCC(NCC(C)C)CC2)no1` [compound 505], the IC50 came out at 126 nM.
